Assay results taken from patent publication US8546386B2, “Corrosion and microbial control in hydrocarbonaceous compositions” (Dow Global Technologies LLC, priority 2008, dated 2013).

Legend:
Assay type in all cases: cell-based
[1] = test system: Hormoconis resinae ATCC#20495; assay: Microbial testing in biodiesel fuel, plate count; details: no biocide
[2] = test system: Pseudomonas aeruginosa ATCC#33988; assay: Microbial testing in biodiesel fuel, plate count; details: no biocide
[3] = test system: Pseudomonas aeruginosa ATCC#33988; assay: Microbial testing in diesel fuel, plate count
[4] = test system: Yarrowia tropicalis ATCC#48138; assay: Microbial testing in diesel fuel, plate count
[5] = test system: Hormoconis resinae ATCC#20495; assay: Microbial testing in diesel fuel, plate count
[6] = amino alcohol 1500 ppm + FS 135 ppm, Day 0
[7] = amino alcohol 1500 ppm + FS 135 ppm, Wk 1
[8] = amino alcohol 1500 ppm + FS 135 ppm, Wk 2
[9] = amino alcohol 1500 ppm + FS 135 ppm, Wk 3
[10] = amino alcohol 1500 ppm + FS 135 ppm, Wk 4
[11] = amino alcohol 1500 ppm + FS 1000 ppm, Day 0
[12] = amino alcohol 1500 ppm + FS 1000 ppm, Wk 1
[13] = amino alcohol 1500 ppm + FS 1000 ppm, Wk 2
[14] = amino alcohol 1500 ppm + FS 1000 ppm, Wk 3
[15] = amino alcohol 1500 ppm + FS 1000 ppm, Wk 4
[16] = amino alcohol 1500 ppm, no biocide, Day 0
[17] = amino alcohol 1500 ppm, no biocide, Wk 1
[18] = amino alcohol 1500 ppm, no biocide, Wk 2
[19] = amino alcohol 1500 ppm, no biocide, Wk 3
[20] = amino alcohol 1500 ppm, no biocide, Wk 4
[21] = amino alcohol 3000 ppm + FS 135 ppm, Day 0
[22] = amino alcohol 3000 ppm + FS 135 ppm, Wk 1
[23] = amino alcohol 3000 ppm + FS 135 ppm, Wk 2
[24] = amino alcohol 3000 ppm + FS 135 ppm, Wk 3
[25] = amino alcohol 3000 ppm + FS 135 ppm, Wk 4
[26] = amino alcohol 3000 ppm + FS 1000 ppm, Day 0
[27] = amino alcohol 3000 ppm + FS 1000 ppm, Wk 1
[28] = amino alcohol 3000 ppm + FS 1000 ppm, Wk 2
[29] = amino alcohol 3000 ppm + FS 1000 ppm, Wk 3
[30] = amino alcohol 3000 ppm + FS 1000 ppm, Wk 4
[31] = amino alcohol 3000 ppm, no biocide, Day 0
[32] = amino alcohol 3000 ppm, no biocide, Wk 1
[33] = amino alcohol 3000 ppm, no biocide, Wk 2
[34] = amino alcohol 3000 ppm, no biocide, Wk 3
[35] = amino alcohol 3000 ppm, no biocide, Wk 4

CCCCCCCC/C=C\CCCCCCCC(=O)O.OCCN(CCO)CCO [TEA/Oleic]
Mold (H. resinae) count ([1]; additive 500 ppm, Week 1): 8.20E+04 Mold/ml
Mold (H. resinae) count ([1]; additive 500 ppm, Week 2): 3.70E+05 Mold/ml
Mold (H. resinae) count ([1]; additive 500 ppm, Week 3): 4.30E+05 Mold/ml
Mold (H. resinae) count ([1]; additive 500 ppm, Week 4): 6.20E+05 Mold/ml
Mold (H. resinae) count ([1]; additive 1500 ppm, Week 1): 3.70E+02 Mold/ml
Mold (H. resinae) count ([1]; additive 1500 ppm, Week 2): 1.30E+04 Mold/ml
Mold (H. resinae) count ([1]; additive 1500 ppm, Week 3): 2.00E+04 Mold/ml
Mold (H. resinae) count ([1]; additive 1500 ppm, Week 4): 4.70E+03 Mold/ml
Bacteria (Ps. aeruginosa) count ([2]; additive 500 ppm, Week 1): 7.30E+04 Bact/ml
Bacteria (Ps. aeruginosa) count ([2]; additive 500 ppm, Week 2): 5.00E+05 Bact/ml
Bacteria (Ps. aeruginosa) count ([2]; additive 500 ppm, Week 3): 1.20E+06 Bact/ml
Bacteria (Ps. aeruginosa) count ([2]; additive 500 ppm, Week 4): 1.10E+06 Bact/ml
Bacteria (Ps. aeruginosa) count ([2]; additive 1500 ppm, Week 1): 2.00E+03 Bact/ml
Bacteria (Ps. aeruginosa) count ([2]; additive 1500 ppm, Week 2): 9.00E+04 Bact/ml
Bacteria (Ps. aeruginosa) count ([2]; additive 1500 ppm, Week 3): 2.20E+05 Bact/ml
Bacteria (Ps. aeruginosa) count ([2]; additive 1500 ppm, Week 4): 8.30E+04 Bact/ml

CC(C)(N)CO [AMP, 2-amino-2-methyl-1-propanol]
Ps. aeruginosa organism count [3, 6]: 3.7E6
Ps. aeruginosa organism count [3, 7]: 4.3E5
Ps. aeruginosa organism count [3, 8]: 9.0E4
Ps. aeruginosa organism count [3, 9]: 1.4E4
Ps. aeruginosa organism count [3, 10]: 8.2E3
Ps. aeruginosa organism count [3, 11]: 3.7E6
Ps. aeruginosa organism count [3, 12]: 1.4E2
Ps. aeruginosa organism count [3, 13]: <10
Ps. aeruginosa organism count [3, 14]: <10
Ps. aeruginosa organism count [3, 15]: <10
Ps. aeruginosa organism count [3, 16]: 3.7E6
Ps. aeruginosa organism count [3, 17]: 2.1E6
Ps. aeruginosa organism count [3, 18]: 5.0E6
Ps. aeruginosa organism count [3, 19]: 1.0E6
Ps. aeruginosa organism count [3, 20]: 6.8E6
Ps. aeruginosa organism count [3, 21]: 3.7E6
Ps. aeruginosa organism count [3, 22]: 7.0E5
Ps. aeruginosa organism count [3, 23]: 6.8E4
Ps. aeruginosa organism count [3, 24]: 1.6E4
Ps. aeruginosa organism count [3, 25]: 1.1E4
Ps. aeruginosa organism count [3, 26]: 3.7E6
Ps. aeruginosa organism count [3, 27]: <10
Ps. aeruginosa organism count [3, 28]: <10
Ps. aeruginosa organism count [3, 29]: <10
Ps. aeruginosa organism count [3, 30]: <10
Ps. aeruginosa organism count [3, 31]: 3.7E6
Ps. aeruginosa organism count [3, 32]: 8.6E5
Ps. aeruginosa organism count [3, 33]: 4.0E6
Ps. aeruginosa organism count [3, 34]: 7.8E6
Ps. aeruginosa organism count [3, 35]: 7.2E6
Y. tropicalis organism count [4, 6]: 2.8E5
Y. tropicalis organism count [4, 7]: 8.2E4
Y. tropicalis organism count [4, 8]: 5.6E4
Y. tropicalis organism count [4, 9]: 9.0E3
Y. tropicalis organism count [4, 10]: 5.9E3
Y. tropicalis organism count [4, 11]: 2.8E5
Y. tropicalis organism count [4, 12]: 5.2E2
Y. tropicalis organism count [4, 13]: <10
Y. tropicalis organism count [4, 14]: <10
Y. tropicalis organism count [4, 15]: <10
Y. tropicalis organism count [4, 16]: 2.8E5
Y. tropicalis organism count [4, 17]: 3.4E5
Y. tropicalis organism count [4, 18]: 6.2E5
Y. tropicalis organism count [4, 19]: 8.0E6
Y. tropicalis organism count [4, 20]: 4.3E6
Y. tropicalis organism count [4, 21]: 2.8E5
Y. tropicalis organism count [4, 22]: 5.8E4
Y. tropicalis organism count [4, 23]: 9.4E3
Y. tropicalis organism count [4, 24]: 4.8E3
Y. tropicalis organism count [4, 25]: 5.0E3
Y. tropicalis organism count [4, 26]: 2.8E5
Y. tropicalis organism count [4, 27]: 9.4E2
Y. tropicalis organism count [4, 28]: <10
Y. tropicalis organism count [4, 29]: <10
Y. tropicalis organism count [4, 30]: <10
Y. tropicalis organism count [4, 31]: 2.8E5
Y. tropicalis organism count [4, 32]: 1.6E5
Y. tropicalis organism count [4, 33]: 5.7E5
Y. tropicalis organism count [4, 34]: 6.8E5
Y. tropicalis organism count [4, 35]: 2.0E6
H. resinae organism count [5, 6]: 5.3E5
H. resinae organism count [5, 7]: 6.7E4
H. resinae organism count [5, 8]: 1.3E4
H. resinae organism count [5, 9]: 5.8E3
H. resinae organism count [5, 10]: 4.7E3
H. resinae organism count [5, 11]: 5.3E5
H. resinae organism count [5, 12]: 9.2E2
H. resinae organism count [5, 13]: <10
H. resinae organism count [5, 14]: <10
H. resinae organism count [5, 15]: <10
H. resinae organism count [5, 16]: 5.3E5
H. resinae organism count [5, 17]: 2.0E5
H. resinae organism count [5, 18]: 5.8E5
H. resinae organism count [5, 19]: 8.1E5
H. resinae organism count [5, 20]: 7.2E5
H. resinae organism count [5, 21]: 5.3E5
H. resinae organism count [5, 22]: 5.7E4
H. resinae organism count [5, 23]: 8.6E3
H. resinae organism count [5, 24]: 7.6E3
H. resinae organism count [5, 25]: 5.8E3
H. resinae organism count [5, 26]: 5.3E5
H. resinae organism count [5, 27]: 7.0E3
H. resinae organism count [5, 28]: <10
H. resinae organism count [5, 29]: <10
H. resinae organism count [5, 30]: <10
H. resinae organism count [5, 31]: 5.3E5
H. resinae organism count [5, 32]: 3.6E5
H. resinae organism count [5, 33]: 7.3E5
H. resinae organism count [5, 34]: 1.1E6
H. resinae organism count [5, 35]: 2.3E6
